Experimental data published in patent US7166299B2, “Preparation of aqueous clear solution dosage forms with bile acids” (priority 1998, dated 2007).
Several values for one entry are separate records, joined by “and”; a condition that tells them apart may be missing. Identical values can stand only once.

Experiment: Solution stability test (HPLC) of UDCA, branched chained amino acids and maltodextrin solution, Example IV
Format: physicochemical
Protocol: The stability tests were conducted on three different aqueous solution systems: […]. A bile acid and a high molecular weight aqueous soluble starch conversion product were combined in aqueous solution according to Example I, with results as shown in Tables 1A and 1B. • 2. Mixed bile acids and high molecular weight aqueous soluble starch conversion products were combined in aqueous solution according to Example II, with results as shown in Table 2. • 3. Bile acids, high molecular weight aqueous soluble starch conversion products and branched chained amino acids (e.g. leucine, isoleucine, valine, or other amino acid with a branched side chain) were combined in aqueous solution according to Example IV, with results as shown in Tables 3A through 3F. The stability tests were performed with HPLC and microscope light at various pH conditions under the normal and accelerated conditions. Accelerated conditions for testing pharmaceutical compositions have been described (Remington, The Science and Practice of Pharmacy, 19th ed., p. 640). […] Thus, the formulations of the examples are suitable for preparing a commercial liquid dosage form. […] Some formulations remain stable for over 2 years. Moreover, the solution stability tests were conducted on the aqueous solution dosage forms comprising the mixture of aqueous soluble UDCA, branched chained amino acid (leucine, isoleucine, valine) and maltodextrin according to example IV as a typical example of the solution dosage forms in which bile acid as a therapeutically active agent, as an adjuvant or carrier, pharmaceutically active agent, or enhancer of solubility, and high molecular weight aqueous soluble starch conversion products or soluble non-starch polysaccharides are dissolved. According to the test results, there is no discoloration, no clarity changes, and no precipitation. […] In the tables, the concentration of the indicated bile acid salt for each of the three numbered trials and the average thereof is reported on each line. The percentage indicates the relative concentration of the bile acid salt after incubation for a certain amount of time in comparison with the initial concentration. 85 mL of the aqueous solution in which soluble UDCA is dissolved was prepared, and then maltodextrin was added into the clear solution. Into the resulting clear solution, branched amino acids were added with adjusting the pH (4–7) with agitation and then sweetener, preservatives, and flavoring agent were added. Purified water was added to adjust the total volume to be 100 mL. Tables 3A to 3F show stability test results over time of formulation prepared with amino acids according to Example IV. All stability tests were conducted at 50° C. Stability test results at pH 1 (Table 3A), pH 3 (Table 3B), pH 5 (Table 3C), pH 7 (Table 3D), pH 9 (Table 3E), and pH 10 (Table 3F) are shown.

CC[C@H](C)[C@H](N)C(=O)O [Ile, isoleucine]
Percentage of day 0 concentration (Table 3A: pH1, 50° C., day 0): 100.0%
concentration by HPLC, Average (Table 3A: pH1, 50° C., day 0): 0.248
concentration by HPLC, trials #1-#3 (Table 3A: pH1, 50° C., day 0): 0.261 and 0.236 and 0.249
Percentage of day 0 concentration (Table 3A: pH1, 50° C., day 1): 105.0%
concentration by HPLC, Average (Table 3A: pH1, 50° C., day 1): 0.261
concentration by HPLC, trials #1-#3 (Table 3A: pH1, 50° C., day 1): 0.256 and 0.275 and 0.251
Percentage of day 0 concentration (Table 3A: pH1, 50° C., day 2): 104.9%
concentration by HPLC, Average (Table 3A: pH1, 50° C., day 2): 0.260
concentration by HPLC, trials #1-#3 (Table 3A: pH1, 50° C., day 2): 0.268 and 0.263 and 0.251
Percentage of day 0 concentration (Table 3A: pH1, 50° C., day 6): 114.6%
concentration by HPLC, Average (Table 3A: pH1, 50° C., day 6): 0.285
concentration by HPLC, trials #1-#3 (Table 3A: pH1, 50° C., day 6): 0.295 and 0.268 and 0.291
Percentage of day 0 concentration (Table 3A: pH1, 50° C., day 7): 103.4%
concentration by HPLC, Average (Table 3A: pH1, 50° C., day 7): 0.257
concentration by HPLC, trials #1-#3 (Table 3A: pH1, 50° C., day 7): 0.249 and 0.254 and 0.267
Percentage of day 0 concentration (Table 3A: pH1, 50° C., day 8): 98.8%
concentration by HPLC, Average (Table 3A: pH1, 50° C., day 8): 0.245
concentration by HPLC, trials #1-#3 (Table 3A: pH1, 50° C., day 8): 0.253 and 0.243 and 0.240
Percentage of day 0 concentration (Table 3A: pH1, 50° C., day 9): 106.6%
concentration by HPLC, Average (Table 3A: pH1, 50° C., day 9): 0.265
concentration by HPLC, trials #1-#3 (Table 3A: pH1, 50° C., day 9): 0.263 and 0.268
Percentage of day 0 concentration (Table 3B: pH 3, 50° C., day 0): 100.0%
concentration by HPLC, Average (Table 3B: pH 3, 50° C., day 0): 0.256
concentration by HPLC, trials #1-#3 (Table 3B: pH 3, 50° C., day 0): 0.261 and 0.254 and 0.253
Percentage of day 0 concentration (Table 3B: pH 3, 50° C., day 1): 103.3%
concentration by HPLC, Average (Table 3B: pH 3, 50° C., day 1): 0.265
concentration by HPLC, trials #1-#3 (Table 3B: pH 3, 50° C., day 1): 0.266 and 0.268 and 0.261
Percentage of day 0 concentration (Table 3B: pH 3, 50° C., day 2): 99.3%
concentration by HPLC, Average (Table 3B: pH 3, 50° C., day 2): 0.254
concentration by HPLC, trials #1-#3 (Table 3B: pH 3, 50° C., day 2): 0.273 and 0.243 and 0.247
Percentage of day 0 concentration (Table 3B: pH 3, 50° C., day 6): 117.4%
concentration by HPLC, Average (Table 3B: pH 3, 50° C., day 6): 0.301
concentration by HPLC, trials #1-#3 (Table 3B: pH 3, 50° C., day 6): 0.296 and 0.306 and 0.300
Percentage of day 0 concentration (Table 3B: pH 3, 50° C., day 7): 100.0%
concentration by HPLC, Average (Table 3B: pH 3, 50° C., day 7): 0.256
concentration by HPLC, trials #1-#3 (Table 3B: pH 3, 50° C., day 7): 0.247 and 0.265 and 0.257
Percentage of day 0 concentration (Table 3B: pH 3, 50° C., day 8): 96.7%
concentration by HPLC, Average (Table 3B: pH 3, 50° C., day 8): 0.248
concentration by HPLC, trials #1-#3 (Table 3B: pH 3, 50° C., day 8): 0.250 and 0.247
Percentage of day 0 concentration (Table 3B: pH 3, 50° C., day 13): 100.9%
concentration by HPLC, Average (Table 3B: pH 3, 50° C., day 13): 0.258
concentration by HPLC, trials #1-#3 (Table 3B: pH 3, 50° C., day 13): 0.285 and 0.240 and 0.250
Percentage of day 0 concentration (Table 3C: pH 5, 50° C., day 0): 100.0%
concentration by HPLC, Average (Table 3C: pH 5, 50° C., day 0): 0.279
concentration by HPLC, trials #1-#3 (Table 3C: pH 5, 50° C., day 0): 0.285 and 0.258 and 0.295
Percentage of day 0 concentration (Table 3C: pH 5, 50° C., day 3): 99.0%
concentration by HPLC, Average (Table 3C: pH 5, 50° C., day 3): 0.277
concentration by HPLC, trials #1-#3 (Table 3C: pH 5, 50° C., day 3): 0.280 and 0.275
Percentage of day 0 concentration (Table 3C: pH 5, 50° C., day 6): 98.7%
concentration by HPLC, Average (Table 3C: pH 5, 50° C., day 6): 0.276
concentration by HPLC, trials #1-#3 (Table 3C: pH 5, 50° C., day 6): 0.285 and 0.273 and 0.270
Percentage of day 0 concentration (Table 3C: pH 5, 50° C., day 10): 98.4%
concentration by HPLC, Average (Table 3C: pH 5, 50° C., day 10): 0.275
concentration by HPLC, trials #1-#3 (Table 3C: pH 5, 50° C., day 10): 0.274 and 0.276
Percentage of day 0 concentration (Table 3C: pH 5, 50° C., day 13): 100.0%
concentration by HPLC, Average (Table 3C: pH 5, 50° C., day 13): 0.279
concentration by HPLC, trials #1-#3 (Table 3C: pH 5, 50° C., day 13): 0.273 and 0.287 and 0.278
Percentage of day 0 concentration (Table 3C: pH 5, 50° C., day 17): 98.3%
concentration by HPLC, Average (Table 3C: pH 5, 50° C., day 17): 0.275
concentration by HPLC, trials #1-#3 (Table 3C: pH 5, 50° C., day 17): 0.278 and 0.276 and 0.270
Percentage of day 0 concentration (Table 3C: pH 5, 50° C., day 20): 95.0%
concentration by HPLC, Average (Table 3C: pH 5, 50° C., day 20): 0.266
concentration by HPLC, trials #1-#3 (Table 3C: pH 5, 50° C., day 20): 0.261 and 0.275
Percentage of day 0 concentration (Table 3C: pH 5, 50° C., day 24): 99.3%
concentration by HPLC, Average (Table 3C: pH 5, 50° C., day 24): 0.277
concentration by HPLC, trials #1-#3 (Table 3C: pH 5, 50° C., day 24): 0.267 and 0.274 and 0.292
Percentage of day 0 concentration (Table 3D: pH 7, 50° C., day 0): 100.0%
concentration by HPLC, Average (Table 3D: pH 7, 50° C., day 0): 0.289
concentration by HPLC, trials #1-#3 (Table 3D: pH 7, 50° C., day 0): 0.296 and 0.289 and 0.281
Percentage of day 0 concentration (Table 3D: pH 7, 50° C., day 5): 99.7%
concentration by HPLC, Average (Table 3D: pH 7, 50° C., day 5): 0.288
concentration by HPLC, trials #1-#3 (Table 3D: pH 7, 50° C., day 5): 0.300 and 0.282 and 0.281
Percentage of day 0 concentration (Table 3D: pH 7, 50° C., day 8): 95.5%
concentration by HPLC, Average (Table 3D: pH 7, 50° C., day 8): 0.276
concentration by HPLC, trials #1-#3 (Table 3D: pH 7, 50° C., day 8): 0.277 and 0.282 and 0.268
Percentage of day 0 concentration (Table 3D: pH 7, 50° C., day 12): 95.8%
concentration by HPLC, Average (Table 3D: pH 7, 50° C., day 12): 0.277
concentration by HPLC, trials #1-#3 (Table 3D: pH 7, 50° C., day 12): 0.273 and 0.278
Percentage of day 0 concentration (Table 3D: pH 7, 50° C., day 15): 93.5%
concentration by HPLC, Average (Table 3D: pH 7, 50° C., day 15): 0.270
concentration by HPLC, trials #1-#3 (Table 3D: pH 7, 50° C., day 15): 0.271 and 0.273 and 0.266
Percentage of day 0 concentration (Table 3D: pH 7, 50° C., day 19): 99.3%
concentration by HPLC, Average (Table 3D: pH 7, 50° C., day 19): 0.287
concentration by HPLC, trials #1-#3 (Table 3D: pH 7, 50° C., day 19): 0.294 and 0.285 and 0.281
Percentage of day 0 concentration (Table 3E: pH 9, 50° C., day 0): 100.0%
concentration by HPLC, Average (Table 3E: pH 9, 50° C., day 0): 0.286
concentration by HPLC, trials #1-#3 (Table 3E: pH 9, 50° C., day 0): 0.291 and 0.286 and 0.282
Percentage of day 0 concentration (Table 3E: pH 9, 50° C., day 3): 95.6%
concentration by HPLC, Average (Table 3E: pH 9, 50° C., day 3): 0.273
concentration by HPLC, trials #1-#3 (Table 3E: pH 9, 50° C., day 3): 0.266 and 0.273 and 0.282
Percentage of day 0 concentration (Table 3E: pH 9, 50° C., day 6): 95.9%
concentration by HPLC, Average (Table 3E: pH 9, 50° C., day 6): 0.274
concentration by HPLC, trials #1-#3 (Table 3E: pH 9, 50° C., day 6): 0.277 and 0.274 and 0.272
Percentage of day 0 concentration (Table 3E: pH 9, 50° C., day 10): 91.2%
concentration by HPLC, Average (Table 3E: pH 9, 50° C., day 10): 0.261
concentration by HPLC, trials #1-#3 (Table 3E: pH 9, 50° C., day 10): 0.243 and 0.245 and 0.295
Percentage of day 0 concentration (Table 3E: pH 9, 50° C., day 13): 87.4%
concentration by HPLC, Average (Table 3E: pH 9, 50° C., day 13): 0.250
concentration by HPLC, trials #1-#3 (Table 3E: pH 9, 50° C., day 13): 0.246 and 0.269 and 0.236
Percentage of day 0 concentration (Table 3E: pH 9, 50° C., day 17): 93.1%
concentration by HPLC, Average (Table 3E: pH 9, 50° C., day 17): 0.267
concentration by HPLC, trials #1-#3 (Table 3E: pH 9, 50° C., day 17): 0.275 and 0.280 and 0.245
Percentage of day 0 concentration (Table 3F: pH 10, 50° C., day 0): 100.0%
concentration by HPLC, Average (Table 3F: pH 10, 50° C., day 0): 0.287
concentration by HPLC, trials #1-#3 (Table 3F: pH 10, 50° C., day 0): 0.292
Percentage of day 0 concentration (Table 3F: pH 10, 50° C., day 2): 84.7%
concentration by HPLC, Average (Table 3F: pH 10, 50° C., day 2): 0.243
Percentage of day 0 concentration (Table 3F: pH 10, 50° C., day 5): 76.0%
concentration by HPLC, Average (Table 3F: pH 10, 50° C., day 5): 0.218
Percentage of day 0 concentration (Table 3F: pH 10, 50° C., day 7): 74.5%
concentration by HPLC, Average (Table 3F: pH 10, 50° C., day 7): 0.214
Percentage of day 0 concentration (Table 3F: pH 10, 50° C., day 9): 70.2%
concentration by HPLC, Average (Table 3F: pH 10, 50° C., day 9): 0.202
concentration by HPLC, trials #1-#3 (Table 3F: pH 10, 50° C., day 9): 0.206 and 0.192 and 0.207
